Experimental data from US7566462B2, “Stable tablet formulation” (BioMarin Pharmaceutical Inc., priority 2004, dated 2009).

Experiments:
[1] = room temperature; Berneggar and Blau 2002; cited from earlier work
[2] = Solid-state stability and hygroscopicity of polymorph B; assay type: physicochemical

| Structure (SMILES) | shelf-life [1] [h] | hygroscopicity [2] | thermodynamic stability [2] | behaviour at high humidity ([2]; percent relative humidity approaches 80%) | stability of the anhydrous polymorph ([2]; room temperature, atmospheric oxygen, normal humidity) |
| --- | --- | --- | --- | --- | --- |
| C[C@H](O)[C@H](O)[C@H]1CNc2nc(N)[nH]c(=O)c2N1 [BH4, Tetrahydrobiopterin] | < 8 | – | – | – | – |
| C[C@H](O)[C@H](O)[C@H]1CNc2nc(N)[nH]c(=O)c2N1.Cl.Cl [polymorph B, (6R)-5,6,7,8-tetrahydrobiopterin dihydrochloride] | – | slightly hygroscopic | highest thermodynamic stability above about 20 °C | appears to take up much more water, loses its crystalline form, and becomes labile to oxidation | stable at room temperature to atmospheric oxygen and normal humidity |
